Data published in patent publication US11821895B2, “Functional cortical organoids, methods of making, and uses thereof” (priority 2017, dated 2023).

System: cortical organoids
Assay: Pharmacological perturbation of network activity in cortical organoids, multi-electrode array (MEA) recordings
Type: cell-based, human

SMILES | number of bursts / burst activity | synchronous activity / synchrony indexes | neuronal electrical activity | network bursts (synchrony) | number of network events
NC(CCCP(=O)(O)O)C(=O)O (stereo not drawn) [AP5] | significantly reducing the number of bursts | extinction of synchronous activity | – | – | –
N#Cc1cc2[nH]c(=O)c(=O)[nH]c2cc1[N+](=O)[O-] [CNQX] | significantly reducing the number of bursts | extinction of synchronous activity | – | – | –
NC1=N[C@H](O)[C@H]2[C@H]3O[C@]4(O)O[C@@H]([C@@H](O)[C@@]2(N1)[C@@H]4O)[C@]3(O)CO [TTX, tetrodotoxin] | – | – | blocked | – | –
NCC(CC(=O)O)c1ccc(Cl)cc1 (stereo not drawn) [baclofen] | significantly reducing the number of bursts | extinction of synchronous activity | – | reversibly extinguish the network bursts (synchrony) | completely abolishes synchronized network events
NCc1cc(=O)[nH]o1 [muscimol] | significantly reducing the number of bursts | extinction of synchronous activity | – | reversibly extinguish the network bursts (synchrony) | –
